Reference: ChEMBL document CHEMBL5303573, “Mapping human microbiome drug metabolism by gut bacteria and their genes” (Nature, 2019)

Legend:
[1] = The drug is tested on Bifidobacterium ruminantium strain: fecal isolate for biotransformation. The drug concentrations were measured before and after a 12-h incubation by liquid-chromatography-coupled mass spectrometry (LC–MS); settings: 2 µM
[2] = anaerostipes sp., 12 h, 2 µM
Description: The drug is tested on Anaerostipes sp. strain: fecal isolate for biotransformation. The drug concentrations were measured before and after a 12-h incubation by liquid-chromatography-coupled mass spectrometry (LC–MS)

[3] = The drug is tested on Clostridium ramosum strain: DSM1402 for biotransformation. The drug concentrations were measured before and after a 12-h incubation by liquid-chromatography-coupled mass spectrometry (LC–MS); settings: thomasclavelia ramosa, 2 µM
[4] = The drug is tested on Bacteroides caccae strain: ATCC43185 for biotransformation. The drug concentrations were measured before and after a 12-h incubation by liquid-chromatography-coupled mass spectrometry (LC–MS); settings: 2 µM
[5] = The drug is tested on Ruminococcus gnavus strain: ATCC29149 for biotransformation. The drug concentrations were measured before and after a 12-h incubation by liquid-chromatography-coupled mass spectrometry (LC–MS); settings: mediterraneibacter gnavus, 2 µM
[6] = The drug is tested on Enterobacter cancerogenus strain: ATCC35316 for biotransformation. The drug concentrations were measured before and after a 12-h incubation by liquid-chromatography-coupled mass spectrometry (LC–MS); settings: 2 µM
[7] = The drug is tested on Edwardsiella tarda strain: ATCC23685 for biotransformation. The drug concentrations were measured before and after a 12-h incubation by liquid-chromatography-coupled mass spectrometry (LC–MS); settings: 2 µM
[8] = The drug is tested on Blautia luti strain: DSM14534 for biotransformation. The drug concentrations were measured before and after a 12-h incubation by liquid-chromatography-coupled mass spectrometry (LC–MS); format: ADME; set-up: dose 2 uM, timepoint 0 vs 12 hours; settings: 2 µM
[9] = The drug is tested on Alistipes indistinctus strain: DSM22520 for biotransformation. The drug concentrations were measured before and after a 12-h incubation by liquid-chromatography-coupled mass spectrometry (LC–MS); settings: 2 µM
[10] = The drug is tested on Coprococcus comes strain: ATCC27758 for biotransformation. The drug concentrations were measured before and after a 12-h incubation by liquid-chromatography-coupled mass spectrometry (LC–MS); format: ADME; set-up: dose 2 uM, timepoint 0 vs 12 hours; settings: 2 µM
[11] = The drug is tested on Anaerococcus hydrogenalis strain: DSM7454 for biotransformation. The drug concentrations were measured before and after a 12-h incubation by liquid-chromatography-coupled mass spectrometry (LC–MS); settings: 2 µM
[12] = The drug is tested on Bacteroides fragilis strain: HMW615 for biotransformation. The drug concentrations were measured before and after a 12-h incubation by liquid-chromatography-coupled mass spectrometry (LC–MS); settings: 2 µM
[13] = The drug is tested on Collinsella aerofaciens strain: ATCC25986 for biotransformation. The drug concentrations were measured before and after a 12-h incubation by liquid-chromatography-coupled mass spectrometry (LC–MS); settings: 2 µM
[14] = The drug is tested on Bacteroides dorei strain: DSM17855 for biotransformation. The drug concentrations were measured before and after a 12-h incubation by liquid-chromatography-coupled mass spectrometry (LC–MS); settings: phocaeicola dorei, 2 µM
[15] = The drug is tested on Bacteroides fragilis strain: HMW610 for biotransformation. The drug concentrations were measured before and after a 12-h incubation by liquid-chromatography-coupled mass spectrometry (LC–MS); settings: 2 µM
[16] = The drug is tested on Bacteroides finegoldii strain: DSM17565 for biotransformation. The drug concentrations were measured before and after a 12-h incubation by liquid-chromatography-coupled mass spectrometry (LC–MS); settings: 2 µM
[17] = enterocloster bolteae, 12 h, 2 µM
Description: The drug is tested on Clostridium bolteae strain: ATCCBAA-613 for biotransformation. The drug concentrations were measured before and after a 12-h incubation by liquid-chromatography-coupled mass spectrometry (LC–MS)

[18] = The drug is tested on Eubacterium rectale strain: ATCC33656 for biotransformation. The drug concentrations were measured before and after a 12-h incubation by liquid-chromatography-coupled mass spectrometry (LC–MS); settings: agathobacter rectalis, 2 µM
[19] = The drug is tested on Ruminococcus torques strain: ATCC27756 for biotransformation. The drug concentrations were measured before and after a 12-h incubation by liquid-chromatography-coupled mass spectrometry (LC–MS); format: ADME; set-up: dose 2 uM, timepoint 0 vs 12 hours; settings: 2 µM
[20] = The drug is tested on Bacteroides sp. WH2 strain: WH2 for biotransformation. The drug concentrations were measured before and after a 12-h incubation by liquid-chromatography-coupled mass spectrometry (LC–MS); settings: bacteroides sp. wh2, 12 h, 2 µM

Structure (SMILES): O=c1[nH]c2ccccc2n1CCCN1CCC(n2c(=O)[nH]c3cc(Cl)ccc32)CC1 [DOMPERIDONE]
- Bacterial Biotransformation [1]: Compound NOT metabolized
- Bacterial Biotransformation [2]: Compound NOT metabolized
- Bacterial Biotransformation [3]: Compound NOT metabolized
- Bacterial Biotransformation [4]: Compound NOT metabolized
- Bacterial Biotransformation [5]: Compound NOT metabolized
- Bacterial Biotransformation [6]: Compound NOT metabolized
- Bacterial Biotransformation [7]: Compound NOT metabolized
- Bacterial Biotransformation [8]: Compound NOT metabolized
- Bacterial Biotransformation [9]: Compound NOT metabolized
- Bacterial Biotransformation [10]: Compound NOT metabolized
- Bacterial Biotransformation [11]: Compound NOT metabolized
- Bacterial Biotransformation [12]: Compound NOT metabolized
- Bacterial Biotransformation [13]: Compound NOT metabolized
- Bacterial Biotransformation [14]: Compound NOT metabolized
- Bacterial Biotransformation [15]: Compound NOT metabolized
- Bacterial Biotransformation [16]: Compound NOT metabolized
- Bacterial Biotransformation [17]: Compound NOT metabolized
- Bacterial Biotransformation [18]: Compound NOT metabolized
- Bacterial Biotransformation [19]: Compound NOT metabolized
- Bacterial Biotransformation [20]: Compound NOT metabolized

Structure (SMILES): Cc1ccc(S(=O)(=O)NC(=O)NN2CC3CCCC3C2)cc1 (stereo not given) [GLICLAZIDE]
- Bacterial Biotransformation [1]: Compound NOT metabolized
- Bacterial Biotransformation [2]: Compound NOT metabolized
- Bacterial Biotransformation [3]: Compound NOT metabolized
- Bacterial Biotransformation [4]: Compound NOT metabolized
- Bacterial Biotransformation [5]: Compound NOT metabolized
- Bacterial Biotransformation [6]: Compound NOT metabolized
- Bacterial Biotransformation [7]: Compound NOT metabolized
- Bacterial Biotransformation [8]: Compound NOT metabolized
- Bacterial Biotransformation [9]: Compound NOT metabolized
- Bacterial Biotransformation [10]: Compound NOT metabolized
- Bacterial Biotransformation [11]: Compound NOT metabolized
- Bacterial Biotransformation [12]: Compound NOT metabolized
- Bacterial Biotransformation [13]: Compound NOT metabolized
- Bacterial Biotransformation [14]: Compound metabolized
- Bacterial Biotransformation [15]: Compound metabolized
- Bacterial Biotransformation [16]: Compound NOT metabolized
- Bacterial Biotransformation [17]: Compound NOT metabolized
- Bacterial Biotransformation [18]: Compound NOT metabolized
- Bacterial Biotransformation [19]: Compound NOT metabolized
- Bacterial Biotransformation [20]: Compound NOT metabolized
